SMILES strings stand for the structures. Where two headings read alike, the source gives them in different places.

The target in series [1] is T1, TRKB (Homo sapiens (Human), UniProt Q16620). The experiment in a line: cell-based. The settings on record: TrkB cell potency, TRKB PathHunter cell line.
For series [2], the target named is T1, TRKB. The experiment in a line: biochemical.
Series [3] concerns the target T2, TRKA (Homo sapiens (Human), UniProt P04629). The experiment in a line: Isolated TRK enzyme assay (HTRF KinEASE-TK), TRKA. The settings on record: isolated TRKA enzyme; read-out: TrkA enzyme potency. Type of series: biochemical.
Target sequence in this assay (P04629 441-796): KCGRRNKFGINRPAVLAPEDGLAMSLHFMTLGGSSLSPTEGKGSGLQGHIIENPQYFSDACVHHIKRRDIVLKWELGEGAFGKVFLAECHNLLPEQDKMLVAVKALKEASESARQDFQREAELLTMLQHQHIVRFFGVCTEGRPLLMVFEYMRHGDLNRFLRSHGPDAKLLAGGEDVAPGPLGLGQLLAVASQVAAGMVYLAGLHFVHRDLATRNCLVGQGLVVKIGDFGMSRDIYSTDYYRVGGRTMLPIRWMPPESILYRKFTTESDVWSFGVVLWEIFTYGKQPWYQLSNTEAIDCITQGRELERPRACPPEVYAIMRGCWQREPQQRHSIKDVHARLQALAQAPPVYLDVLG
The next series deals with TRKC (Homo sapiens (Human), UniProt Q16288). The experiment in a line: Cell based DiscoveRx PathHunter antagonist assay, TRKC cell line. Conditions: read-out: TrkC cell potency. The method, then: After the Detection Reagent addition, plates are covered and incubated at room temperature for 60 minutes. […] Test compound data are expressed as percentage inhibition defined by HPE and ZPE values for each plate. Percentage inhibition in the presence of test compound is plotted against compound concentration on a log scale to determine an IC50 from the resultant sigmoid curve. Cell Based Assays were carried out using Cell lines from DiscoveRx utilising their PathHunter technology and reagents in an antagonist assay:
The assays are based upon DiscoveRx's proprietary Enzyme Fragment Complementation (EFC) technology. In the case of the TRK cell lines, the enzyme acceptor (EA) protein is fused to a SH2 protein and the TRK receptor of interest has been tagged with a Prolink tag.
Upon neurotrophin binding, the TRK receptor becomes phosphorylated, and the tagged SH2 protein binds.
This means that the IC50 is a good measure of affinity and should be unaffected by concentration neurotrophin stimulant.
Cryopreserved PathHunter cells are used from either in-house produced batches or bulk batches bought directly from DiscoveRx. Cryopreserved cells are resuscitated, spun 1000 rpm for 4 min to remove freezing media, and resuspended in MEM+0.5% horse serum (both Invitrogen) to 5e^5 cells/ml. The cells are then plated using a Multidrop into Greiner white tissue culture treated plates at 20 ul/well and incubated for 24 h at 37° C., 5% CO2, high humidity. On the day of the assay, the cell plates are allowed to cool to room temperature for 30 min prior to the assay.
Plates containing 1 ul of serially diluted compound, standard and HPE/ZPE are diluted 1/66 in assay buffer (PBS minus Ca^2+, minus Mg^2+ with 0.05% pluronic F127) using a Wellmate. […] The plates are left at room temperature for a further 2 hours before addition of 10 ul of the DiscoveRx PathHunter detection reagent (made up by adding 1 part Galacton Star, 5 parts Emerald II and 19 parts Cell Assay Buffer as per the manufacturer's instructions).
After reagent addition, plates are covered and incubated at room temperature for 60 minutes. Luminescence signal is read using an Envision. Test compound data are expressed as percentage inhibition defined by HPE and ZPE values for each plate. Percentage inhibition in the presence of test compound is plotted against compound concentration on a log scale to determine an […] from the resultant sigmoid curve.

For series [4], the target named is T2, TRKA. The experiment in a line: Cell based DiscoveRx PathHunter antagonist assay, TRKA cell line. The settings on record: read-out: TrkA cell potency.
Target sequence in this assay (P04629 33-796): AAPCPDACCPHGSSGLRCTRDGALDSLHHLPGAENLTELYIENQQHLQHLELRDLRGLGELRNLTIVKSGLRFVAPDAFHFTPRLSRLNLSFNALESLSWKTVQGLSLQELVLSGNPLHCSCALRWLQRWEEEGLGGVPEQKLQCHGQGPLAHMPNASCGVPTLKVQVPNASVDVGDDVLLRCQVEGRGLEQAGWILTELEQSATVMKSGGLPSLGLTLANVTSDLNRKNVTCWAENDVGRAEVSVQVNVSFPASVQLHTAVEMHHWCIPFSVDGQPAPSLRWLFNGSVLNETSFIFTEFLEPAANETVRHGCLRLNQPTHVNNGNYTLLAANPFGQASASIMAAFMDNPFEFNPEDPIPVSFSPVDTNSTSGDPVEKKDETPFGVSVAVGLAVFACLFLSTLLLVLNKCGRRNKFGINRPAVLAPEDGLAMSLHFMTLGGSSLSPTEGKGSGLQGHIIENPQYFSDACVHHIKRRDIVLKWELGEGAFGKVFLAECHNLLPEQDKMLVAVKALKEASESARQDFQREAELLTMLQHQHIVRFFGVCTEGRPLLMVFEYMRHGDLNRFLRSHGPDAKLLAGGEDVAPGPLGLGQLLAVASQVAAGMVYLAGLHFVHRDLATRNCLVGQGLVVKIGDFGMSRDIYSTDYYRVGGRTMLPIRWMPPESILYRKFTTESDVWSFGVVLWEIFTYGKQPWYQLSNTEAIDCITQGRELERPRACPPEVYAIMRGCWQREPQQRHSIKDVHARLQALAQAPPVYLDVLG
The target in the next series is BCRP (ABCG2) (Homo sapiens (Human), UniProt Q9UNQ0). The experiment in a line: MDCK-BCRP efflux assay (in vitro brain penetration). Type of series: in vitro ADME. The settings on record: dog; for Papp A→B: A to B, read-out: RRCK BCRP Papp AB; for Papp B→A: B to A, read-out: RRCK BCRP Papp BA.
Chain of BCRP (ABCG2) (Q9UNQ0 whole entry): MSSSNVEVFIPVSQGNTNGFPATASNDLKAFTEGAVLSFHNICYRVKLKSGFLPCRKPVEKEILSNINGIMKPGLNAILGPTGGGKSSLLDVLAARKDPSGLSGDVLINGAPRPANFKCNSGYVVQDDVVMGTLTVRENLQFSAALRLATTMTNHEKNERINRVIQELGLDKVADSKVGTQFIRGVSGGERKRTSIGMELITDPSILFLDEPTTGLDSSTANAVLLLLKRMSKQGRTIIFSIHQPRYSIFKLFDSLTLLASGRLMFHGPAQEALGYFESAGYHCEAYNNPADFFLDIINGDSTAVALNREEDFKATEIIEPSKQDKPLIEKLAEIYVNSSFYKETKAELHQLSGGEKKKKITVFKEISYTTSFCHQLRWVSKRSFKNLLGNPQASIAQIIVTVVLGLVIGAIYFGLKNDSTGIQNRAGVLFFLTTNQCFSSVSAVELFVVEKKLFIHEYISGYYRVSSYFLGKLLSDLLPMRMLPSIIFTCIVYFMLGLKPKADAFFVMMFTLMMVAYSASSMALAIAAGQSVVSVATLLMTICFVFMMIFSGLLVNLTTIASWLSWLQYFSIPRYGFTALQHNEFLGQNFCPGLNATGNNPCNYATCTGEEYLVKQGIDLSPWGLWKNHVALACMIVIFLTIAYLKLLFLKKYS
In a further series the target is MDR1 (Homo sapiens (Human), UniProt P08183). The experiment in a line: MDCK-MDR1 assay (in vitro brain penetration). The settings on record: human; for Papp A→B: MDCK-MDR1, A to B, read-out: MDCK MDR1 Papp AB; for Papp B→A: read-out: MDCK MDR1 Papp BA. The series is classed as in vitro ADME. The text has this: MDCK-MDR1: MDCK-MDR1 data were collected according to the method described in “Are MDCK Cells Transfected with the Human MDR1 Gene a Good Model of the Human Intestinal Mucosa?”
Chain of MDR1 (P08183 whole entry): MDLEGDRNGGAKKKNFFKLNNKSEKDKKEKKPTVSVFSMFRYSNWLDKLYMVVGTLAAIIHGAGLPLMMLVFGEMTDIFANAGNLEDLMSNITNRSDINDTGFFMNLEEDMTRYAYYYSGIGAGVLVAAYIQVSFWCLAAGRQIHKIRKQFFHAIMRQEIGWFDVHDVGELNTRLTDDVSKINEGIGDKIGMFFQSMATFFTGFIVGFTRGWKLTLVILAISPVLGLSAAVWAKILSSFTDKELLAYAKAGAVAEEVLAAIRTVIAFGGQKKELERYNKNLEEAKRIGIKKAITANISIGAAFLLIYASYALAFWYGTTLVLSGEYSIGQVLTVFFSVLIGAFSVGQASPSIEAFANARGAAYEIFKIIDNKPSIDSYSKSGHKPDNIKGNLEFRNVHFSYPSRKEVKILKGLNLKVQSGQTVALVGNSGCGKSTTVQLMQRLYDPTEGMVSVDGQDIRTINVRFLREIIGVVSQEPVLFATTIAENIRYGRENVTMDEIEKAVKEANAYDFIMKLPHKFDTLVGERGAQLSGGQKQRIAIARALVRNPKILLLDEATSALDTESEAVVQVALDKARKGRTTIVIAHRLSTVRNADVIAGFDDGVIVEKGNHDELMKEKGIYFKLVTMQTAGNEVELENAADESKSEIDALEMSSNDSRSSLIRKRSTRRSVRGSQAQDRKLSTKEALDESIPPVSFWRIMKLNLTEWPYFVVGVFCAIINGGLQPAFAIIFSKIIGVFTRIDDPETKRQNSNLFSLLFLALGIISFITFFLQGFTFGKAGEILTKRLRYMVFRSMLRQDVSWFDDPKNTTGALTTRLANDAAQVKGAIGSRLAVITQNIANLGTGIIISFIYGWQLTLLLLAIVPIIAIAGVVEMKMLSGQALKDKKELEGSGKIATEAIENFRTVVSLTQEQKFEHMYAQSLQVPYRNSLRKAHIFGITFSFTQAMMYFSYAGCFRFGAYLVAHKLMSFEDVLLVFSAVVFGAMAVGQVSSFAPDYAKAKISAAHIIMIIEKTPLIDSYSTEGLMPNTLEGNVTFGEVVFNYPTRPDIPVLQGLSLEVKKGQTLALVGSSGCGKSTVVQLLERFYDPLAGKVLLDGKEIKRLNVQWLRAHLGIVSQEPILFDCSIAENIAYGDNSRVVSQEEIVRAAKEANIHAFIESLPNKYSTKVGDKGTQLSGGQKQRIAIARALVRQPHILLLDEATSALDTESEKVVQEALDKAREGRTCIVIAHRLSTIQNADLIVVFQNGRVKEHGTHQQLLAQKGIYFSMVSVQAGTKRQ
http://www.springerlink.com/content/qfhqlqbr4fnp3 khf/fulltext.pdf

[5] abbreviates: isolated TRKB enzyme, read-out: TrkB enzyme potency.

Chain of TRKC (Q16288 32-839): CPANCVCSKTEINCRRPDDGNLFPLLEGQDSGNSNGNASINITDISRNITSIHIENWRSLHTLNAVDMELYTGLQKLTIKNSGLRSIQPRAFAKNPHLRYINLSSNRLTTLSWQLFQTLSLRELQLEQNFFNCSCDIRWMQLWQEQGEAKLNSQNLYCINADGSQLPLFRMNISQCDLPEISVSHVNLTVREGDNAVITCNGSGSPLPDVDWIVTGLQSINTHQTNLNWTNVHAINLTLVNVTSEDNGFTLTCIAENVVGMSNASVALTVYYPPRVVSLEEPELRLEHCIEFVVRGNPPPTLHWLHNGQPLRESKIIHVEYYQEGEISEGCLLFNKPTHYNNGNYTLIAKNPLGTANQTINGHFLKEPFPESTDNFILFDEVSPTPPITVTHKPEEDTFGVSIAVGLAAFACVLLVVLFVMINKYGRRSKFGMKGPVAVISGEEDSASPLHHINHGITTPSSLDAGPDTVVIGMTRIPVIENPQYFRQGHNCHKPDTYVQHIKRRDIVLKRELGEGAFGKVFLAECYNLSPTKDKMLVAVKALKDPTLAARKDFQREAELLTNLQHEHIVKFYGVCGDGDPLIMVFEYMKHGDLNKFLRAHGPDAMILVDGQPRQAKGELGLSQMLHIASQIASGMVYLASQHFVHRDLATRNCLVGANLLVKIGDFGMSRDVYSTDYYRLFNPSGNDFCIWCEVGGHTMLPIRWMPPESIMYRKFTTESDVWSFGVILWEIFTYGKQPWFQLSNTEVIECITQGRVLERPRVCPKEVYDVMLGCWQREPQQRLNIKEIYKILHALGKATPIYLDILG
T1 sequence (Q16620 32-822 limits assumed): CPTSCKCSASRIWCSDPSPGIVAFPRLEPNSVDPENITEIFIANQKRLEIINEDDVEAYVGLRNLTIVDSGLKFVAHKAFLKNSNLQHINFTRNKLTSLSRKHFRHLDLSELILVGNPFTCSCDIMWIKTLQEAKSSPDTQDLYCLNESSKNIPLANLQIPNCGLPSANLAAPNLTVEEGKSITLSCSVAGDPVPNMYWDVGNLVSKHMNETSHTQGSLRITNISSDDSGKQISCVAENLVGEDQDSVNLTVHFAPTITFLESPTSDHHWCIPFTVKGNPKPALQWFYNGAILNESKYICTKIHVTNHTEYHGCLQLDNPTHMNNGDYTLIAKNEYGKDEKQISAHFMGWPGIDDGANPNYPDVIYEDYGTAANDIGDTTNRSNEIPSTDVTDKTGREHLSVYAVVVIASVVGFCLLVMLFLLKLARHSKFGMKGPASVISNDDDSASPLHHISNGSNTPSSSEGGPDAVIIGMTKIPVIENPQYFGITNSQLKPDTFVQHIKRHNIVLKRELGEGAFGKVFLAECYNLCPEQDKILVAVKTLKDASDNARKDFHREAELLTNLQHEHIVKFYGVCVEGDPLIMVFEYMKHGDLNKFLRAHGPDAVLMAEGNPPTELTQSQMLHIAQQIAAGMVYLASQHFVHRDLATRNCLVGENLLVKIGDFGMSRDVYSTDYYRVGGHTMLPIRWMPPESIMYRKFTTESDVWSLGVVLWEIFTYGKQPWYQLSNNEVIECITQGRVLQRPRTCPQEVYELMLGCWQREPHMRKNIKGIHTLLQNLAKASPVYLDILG

As for `CC(C)(C)n1cc(C(=O)c2cncc(NC(=O)Cn3cc(C4CC4)nn3)c2)c2cncnc21` [Example 4, N-{5-[(7-tert-butyl-7H-pyrrolo[2,3-d]pyrimidin-5-yl)carbonyl]pyridin-3-yl}-2-(4-cyclopropyl-1H-1,2,3-triazol-1-yl)acetamide], the IC50 stood at 6.5 nM on TRKB [1]; 162 nM at TRKB [2] (TrkB enzyme potency); 3.9 nM at TRKA [3]; 4.4 nM on TRKC; 5.7 nM at TRKA [4]. Also, the Papp A→B on BCRP (ABCG2) is 12 ×10⁻⁶ cm/s; at MDR1 it was under 1 ×10⁻⁶ cm/s. Besides, the Papp B→A is 39 ×10⁻⁶ cm/s on BCRP (ABCG2) and 13 ×10⁻⁶ cm/s at MDR1 (MDCK-MDR1, B to A).
Regarding `C[C@@H](CO)n1cc(C(=O)c2cncc(NC(=O)Cc3ccc(C(F)(F)F)cc3)c2)c2cncnc21` [Example 9, N-[5-({7-[(1S)-2-Hydroxy-1-methylethyl]-7H-pyrrolo[2,3-d]pyrimidin-5-yl}carbonyl)pyridin-3-yl]-2-[4-(trifluoromethyl)phenyl]acetamide], the IC50 was determined as 6.6 nM against TRKB [1]; 94 nM on TRKB [2] (setting [5]); 3.7 nM on TRKA [3]; 5.9 nM on TRKC; 13 nM on TRKA [4]. In addition, the Papp A→B on BCRP (ABCG2) was 9 ×10⁻⁶ cm/s; on MDR1, under 1 ×10⁻⁶ cm/s. The Papp B→A came out at 43 ×10⁻⁶ cm/s on BCRP (ABCG2) and 20 ×10⁻⁶ cm/s on MDR1 (MDCK-MDR1, MDCK-MDR1, B to A).
Turning to `C[C@@H](CO)n1cc(C(=O)c2cncc(NC(=O)Cc3ccc(Cl)cn3)c2)c2cncnc21` [Example 14, 2-(5-chloropyridin-2-yl)-N-[5-({7-[(1S)-2-hydroxy-1-methylethyl]-7H-pyrrolo[2,3-d]pyrimidin-5-yl}carbonyl)pyridin-3-yl]acetamide], the IC50 on TRKB [1] turned out to be 15 nM; on TRKB [2] (setting [5]) it was 773 nM; on TRKA [3], 13 nM; on TRKC it was 4.8 nM; at TRKA [4], 41 nM. The Papp B→A at MDR1 (MDCK-MDR1, MDCK-MDR1, B to A) stood at 21 ×10⁻⁶ cm/s. Also, the Papp A→B at MDR1 was under 1 ×10⁻⁶ cm/s.
For the compound `C[C@H](CO)n1cc(C(=O)c2cncc(NC(=O)Cc3ccc(Cl)cc3)c2)c2cncnc21` [Example 24, 2-(4-chlorophenyl)-N-[5-({7-[(1R)-2-hydroxy-1-methylethyl]-7H-pyrrolo[2,3-d]pyrimidin-5-yl}carbonyl)pyridin-3-yl]acetamide], the IC50 against TRKB [1] came to 27 nM; against TRKB [2] (TrkB enzyme potency), 427 nM; at TRKA [3], 125 nM; at TRKC it was 8.9 nM; on TRKA [4], 37 nM. The Papp A→B on MDR1 was under 1 ×10⁻⁶ cm/s. The Papp B→A at MDR1 (MDCK-MDR1, B to A) stood at 10 ×10⁻⁶ cm/s.
With `Cc1cc(C(F)(F)F)nn1CC(=O)Nc1cncc(C(=O)c2cn(C(C)(C)CO)c3ncncc23)c1` [Example 26, N-(5-{[7-(2-hydroxy-1,1-dimethylethyl)-7H-pyrrolo[2,3-d]pyrimidin-5-yl]carbonyl}pyridin-3-yl)-2-[5-methyl-3-(trifluoromethyl)-1H-pyrazol-1-yl]acetamide], the IC50 stood at 5.9 nM against TRKB [1]; 30 nM against TRKB [2] (TrkB enzyme potency); 3.5 nM on TRKA [3]; 8.6 nM on TRKC; 14 nM at TRKA [4]. Moreover, the Papp A→B was 7.5 ×10⁻⁶ cm/s at BCRP (ABCG2) and under 1 ×10⁻⁶ cm/s at MDR1. The Papp B→A at BCRP (ABCG2) amounted to 32 ×10⁻⁶ cm/s; at MDR1 (MDCK-MDR1, B to A), 16 ×10⁻⁶ cm/s.
With `CC(C)(CO)n1cc(C(=O)c2cncc(NC(=O)Cc3ccc(C(F)(F)F)cc3)c2)c2cncnc21` [Example 27, N-(5-{[7-(2-hydroxy-1,1-dimethylethyl)-7H-pyrrolo[2,3-d]pyrimidin-5-yl]carbonyl}pyridin-3-yl)-2-[4-(trifluoromethyl)phenyl]acetamide], the IC50 at TRKB [1] is 5.4 nM; at TRKB [2] (setting [5]), 55 nM; on TRKA [3], 2.8 nM; at TRKC it was 3.2 nM; at TRKA [4] it was 3.9 nM. The Papp B→A on MDR1 (MDCK-MDR1, MDCK-MDR1, B to A) amounted to 17 ×10⁻⁶ cm/s. In addition, at MDR1, the Papp A→B is under 1 ×10⁻⁶ cm/s.
As for `CC(C)(CO)n1cc(C(=O)c2cncc(NC(=O)Cn3cc(C(F)(F)F)nn3)c2)c2cncnc21` [Example 32, N-(5-{[7-(2-hydroxy-1,1-dimethylethyl)-7H-pyrrolo[2,3-d]pyrimidin-5-yl]carbonyl}pyridin-3-yl)-2-[4-(trifluoromethyl)-1H-1,2,3-triazol-1-yl]acetamide], the IC50 against TRKB [1] is 59 nM; on TRKB [2] (setting [5]), 423 nM; on TRKA [3] it was 9 nM; at TRKC it was 18 nM; on TRKA [4], 87 nM. Also, the Papp B→A on MDR1 (MDCK-MDR1, MDCK-MDR1, B to A) is 3.4 ×10⁻⁶ cm/s. Further, the Papp A→B on MDR1 was under 1 ×10⁻⁶ cm/s.
`CC(C)(CO)n1cc(C(=O)c2cncc(NC(=O)Cc3ccc(Cl)cn3)c2)c2cnc(N)nc21` [Example 46, N-(5-{[2-Amino-7-(2-hydroxy-1,1-dimethylethyl)-7H-pyrrolo[2,3-d]pyrimidin-5-yl]carbonyl}pyridin-3-yl)-2-(5-chloropyridin-2-yl)acetamide]: the Papp A→B on BCRP (ABCG2) is 7 ×10⁻⁶ cm/s; at MDR1, under 1 ×10⁻⁶ cm/s. The Papp B→A at BCRP (ABCG2) is 31 ×10⁻⁶ cm/s; at MDR1 (MDCK-MDR1, MDCK-MDR1, B to A), 18 ×10⁻⁶ cm/s.
For the compound `CC(C)(CO)n1cc(C(=O)c2cncc(NC(=O)Cc3ccc(C(F)(F)F)cc3)c2)c2cnc(N)nc21` [Example 48, N-(5-{[2-amino-7-(2-hydroxy-1,1-dimethylethyl)-7H-pyrrolo[2,3-d]pyrimidin-5-yl]carbonyl}pyridin-3-yl)-2-[4-(trifluoromethyl)phenyl]acetamide], the IC50 on TRKB [1] came out at 3.6 nM; at TRKB [2] (setting [5]) it was 40 nM; on TRKA [3], 1.7 nM; at TRKC, 2.5 nM; on TRKA [4] it was 2.9 nM. At MDR1 (MDCK-MDR1, MDCK-MDR1, B to A), the Papp B→A amounted to 12 ×10⁻⁶ cm/s. Besides, the Papp A→B on MDR1 is under 1 ×10⁻⁶ cm/s.
In the case of `CC(C)(CO)n1cc(C(=O)c2cncc(NC(=O)Cc3ccc(F)cn3)c2)c2cnc(N)nc21` [Example 51, N-(5-{[2-amino-7-(2-hydroxy-1,1-dimethylethyl)-7H-pyrrolo[2,3-d]pyrimidin-5-yl]carbonyl}pyridin-3-yl)-2-(5-fluoropyridin-2-yl)acetamide], the IC50 on TRKB [1] was 7.5 nM; on TRKB [2] (setting [5]), 198 nM; at TRKA [3], 7.8 nM; at TRKC it was 9.9 nM; on TRKA [4], 35 nM. Moreover, the Papp B→A on MDR1 (MDCK-MDR1, MDCK-MDR1, B to A) was 11 ×10⁻⁶ cm/s. Also, the Papp A→B at MDR1 was under 1 ×10⁻⁶ cm/s.
For `CC(C)(CO)n1cc(C(=O)c2cncc(NC(=O)Cn3ccc(C(F)(F)F)n3)c2)c2cnc(N)nc21` [Example 52, N-(5-{[2-amino-7-(2-hydroxy-1,1-dimethylethyl)-7H-pyrrolo[2,3-d]pyrimidin-5-yl]carbonyl}pyridin-3-yl)-2-[3-(trifluoromethyl)-1H-pyrazol-1-yl]acetamide], the IC50 against TRKB [1] is 16 nM; on TRKB [2] (TrkB enzyme potency), 103 nM; on TRKA [3] it was 3.1 nM; at TRKC, 8.1 nM; on TRKA [4], 22 nM. Further, the Papp A→B on MDR1 is under 1 ×10⁻⁶ cm/s. The Papp B→A on MDR1 (MDCK-MDR1, B to A) amounted to 9.1 ×10⁻⁶ cm/s.
As for `CC(C)(CO)n1cc(C(=O)c2cncc(NC(=O)Cn3ccc(C4CC4)n3)c2)c2cnc(N)nc21` [Example 53, N-(5-{[2-amino-7-(2-hydroxy-1,1-dimethylethyl)-7H-pyrrolo[2,3-d]pyrimidin-5-yl]carbonyl}pyridin-3-yl)-2-(3-cyclopropyl-1H-pyrazol-1-yl)acetamide], the IC50 is 5 nM against TRKB [1]; 163 nM on TRKB [2] (TrkB enzyme potency); 4 nM at TRKA [3]; 8.6 nM at TRKC; 16 nM at TRKA [4]. Moreover, at MDR1, the Papp A→B is under 1 ×10⁻⁶ cm/s. Moreover, on MDR1 (MDCK-MDR1, B to A), the Papp B→A was found to be 13 ×10⁻⁶ cm/s.

Source of the values: patent US8846698B2, “Pyrrolo[2,3-d]pyrimidine tropomysin-related kinase inhibitors” (Pfizer Limited, priority 2011, dated 2014).
